The text below walks through data of ChEMBL document CHEMBL4000238, “Discovery of core-structurally novel PTP1B inhibitors with specific selectivity containing oxindole-fused spirotetrahydrofurochroman by one-pot reaction” (Bioorg Med Chem Lett, 2017).

Each structure is given as a SMILES string.

Experiment [1] addresses T1, Tyrosine-protein phosphatase non-receptor type 1 (Homo sapiens, UniProt P18031).
T1 sequence (P18031 whole entry): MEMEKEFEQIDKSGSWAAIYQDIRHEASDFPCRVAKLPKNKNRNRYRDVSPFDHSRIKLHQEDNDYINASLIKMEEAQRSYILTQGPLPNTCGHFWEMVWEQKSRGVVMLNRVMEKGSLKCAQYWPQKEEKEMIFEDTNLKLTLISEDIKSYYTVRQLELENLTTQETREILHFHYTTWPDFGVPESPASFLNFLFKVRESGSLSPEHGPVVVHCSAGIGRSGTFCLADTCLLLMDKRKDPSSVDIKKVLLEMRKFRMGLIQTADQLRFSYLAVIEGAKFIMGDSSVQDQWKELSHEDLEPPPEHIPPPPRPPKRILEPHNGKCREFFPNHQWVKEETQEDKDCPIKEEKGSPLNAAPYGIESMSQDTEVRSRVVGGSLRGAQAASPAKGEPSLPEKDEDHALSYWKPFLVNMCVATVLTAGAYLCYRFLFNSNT
As to the kind of experiment: Inhibition of recombinant human PTP1B catalytic domain expressed in Escherichia coli BL21-CodonPlus (DE3) using pNPP as substrate measured for 2 mins.

The target in experiment [2] is T2, Tyrosine-protein phosphatase non-receptor type 2 (Homo sapiens) (UniProt P17706).
T2 sequence (whole entry): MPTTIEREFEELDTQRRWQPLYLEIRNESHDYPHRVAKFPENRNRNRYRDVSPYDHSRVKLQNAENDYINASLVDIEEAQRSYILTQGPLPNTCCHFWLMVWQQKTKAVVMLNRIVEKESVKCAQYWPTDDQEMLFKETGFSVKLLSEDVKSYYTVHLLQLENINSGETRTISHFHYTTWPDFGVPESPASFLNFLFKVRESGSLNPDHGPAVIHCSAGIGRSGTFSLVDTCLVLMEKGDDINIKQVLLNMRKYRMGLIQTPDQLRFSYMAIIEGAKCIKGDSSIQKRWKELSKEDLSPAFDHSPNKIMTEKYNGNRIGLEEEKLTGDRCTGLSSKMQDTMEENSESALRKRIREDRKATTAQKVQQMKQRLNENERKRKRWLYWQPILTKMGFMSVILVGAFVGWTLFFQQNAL
Briefly: Inhibition of GST-tagged human […] expressed in Escherichia coli at 20 ug/ml using pNPP as substrate relative to control.

Experiment [3] concerns the target T3, Tyrosine-protein phosphatase non-receptor type 6 (Homo sapiens, UniProt P29350). As to the kind of experiment: Inhibition of GST-tagged human SHP1 expressed in Escherichia coli at 20 ug/ml using pNPP as substrate relative to control.
Experiment [4] concerns the target T3, Tyrosine-protein phosphatase non-receptor type 6. Briefly: Inhibition of GST-tagged human SHP1 expressed in Escherichia coli using pNPP as substrate.
Experiment [5] concerns the target Receptor-type tyrosine-protein phosphatase F (Homo sapiens) (UniProt P10586). As to the kind of experiment: Inhibition of GST-tagged human LAR expressed in Escherichia coli at 20 ug/ml using pNPP as substrate relative to control.
The target of experiment [6] is T4, Tyrosine-protein phosphatase non-receptor type 2 (Homo sapiens, UniProt P17706).
T4 sequence (P17706 whole entry): T2 sequence (whole entry)
Briefly: Inhibition of GST-tagged human […] expressed in Escherichia coli using pNPP as substrate.

T3 sequence (P29350 whole entry): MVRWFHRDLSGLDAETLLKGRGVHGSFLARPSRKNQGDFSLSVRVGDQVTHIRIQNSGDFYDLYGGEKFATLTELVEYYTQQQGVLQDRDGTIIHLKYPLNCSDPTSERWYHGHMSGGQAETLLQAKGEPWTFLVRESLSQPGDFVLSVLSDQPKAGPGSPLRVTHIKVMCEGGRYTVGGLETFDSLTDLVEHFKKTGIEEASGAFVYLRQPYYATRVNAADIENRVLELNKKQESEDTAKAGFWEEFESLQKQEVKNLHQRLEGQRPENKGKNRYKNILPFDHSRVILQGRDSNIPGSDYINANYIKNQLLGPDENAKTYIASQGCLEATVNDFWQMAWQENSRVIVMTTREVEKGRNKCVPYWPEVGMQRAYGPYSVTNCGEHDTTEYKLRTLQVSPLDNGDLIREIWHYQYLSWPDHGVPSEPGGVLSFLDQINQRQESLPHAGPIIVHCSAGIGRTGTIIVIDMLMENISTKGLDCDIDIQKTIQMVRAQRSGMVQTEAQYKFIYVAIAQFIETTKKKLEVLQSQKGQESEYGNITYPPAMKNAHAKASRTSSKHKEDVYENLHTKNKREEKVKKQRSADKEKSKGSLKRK
Receptor-type tyrosine-protein phosphatase F (Homo sapiens), sequence (P10586 whole entry): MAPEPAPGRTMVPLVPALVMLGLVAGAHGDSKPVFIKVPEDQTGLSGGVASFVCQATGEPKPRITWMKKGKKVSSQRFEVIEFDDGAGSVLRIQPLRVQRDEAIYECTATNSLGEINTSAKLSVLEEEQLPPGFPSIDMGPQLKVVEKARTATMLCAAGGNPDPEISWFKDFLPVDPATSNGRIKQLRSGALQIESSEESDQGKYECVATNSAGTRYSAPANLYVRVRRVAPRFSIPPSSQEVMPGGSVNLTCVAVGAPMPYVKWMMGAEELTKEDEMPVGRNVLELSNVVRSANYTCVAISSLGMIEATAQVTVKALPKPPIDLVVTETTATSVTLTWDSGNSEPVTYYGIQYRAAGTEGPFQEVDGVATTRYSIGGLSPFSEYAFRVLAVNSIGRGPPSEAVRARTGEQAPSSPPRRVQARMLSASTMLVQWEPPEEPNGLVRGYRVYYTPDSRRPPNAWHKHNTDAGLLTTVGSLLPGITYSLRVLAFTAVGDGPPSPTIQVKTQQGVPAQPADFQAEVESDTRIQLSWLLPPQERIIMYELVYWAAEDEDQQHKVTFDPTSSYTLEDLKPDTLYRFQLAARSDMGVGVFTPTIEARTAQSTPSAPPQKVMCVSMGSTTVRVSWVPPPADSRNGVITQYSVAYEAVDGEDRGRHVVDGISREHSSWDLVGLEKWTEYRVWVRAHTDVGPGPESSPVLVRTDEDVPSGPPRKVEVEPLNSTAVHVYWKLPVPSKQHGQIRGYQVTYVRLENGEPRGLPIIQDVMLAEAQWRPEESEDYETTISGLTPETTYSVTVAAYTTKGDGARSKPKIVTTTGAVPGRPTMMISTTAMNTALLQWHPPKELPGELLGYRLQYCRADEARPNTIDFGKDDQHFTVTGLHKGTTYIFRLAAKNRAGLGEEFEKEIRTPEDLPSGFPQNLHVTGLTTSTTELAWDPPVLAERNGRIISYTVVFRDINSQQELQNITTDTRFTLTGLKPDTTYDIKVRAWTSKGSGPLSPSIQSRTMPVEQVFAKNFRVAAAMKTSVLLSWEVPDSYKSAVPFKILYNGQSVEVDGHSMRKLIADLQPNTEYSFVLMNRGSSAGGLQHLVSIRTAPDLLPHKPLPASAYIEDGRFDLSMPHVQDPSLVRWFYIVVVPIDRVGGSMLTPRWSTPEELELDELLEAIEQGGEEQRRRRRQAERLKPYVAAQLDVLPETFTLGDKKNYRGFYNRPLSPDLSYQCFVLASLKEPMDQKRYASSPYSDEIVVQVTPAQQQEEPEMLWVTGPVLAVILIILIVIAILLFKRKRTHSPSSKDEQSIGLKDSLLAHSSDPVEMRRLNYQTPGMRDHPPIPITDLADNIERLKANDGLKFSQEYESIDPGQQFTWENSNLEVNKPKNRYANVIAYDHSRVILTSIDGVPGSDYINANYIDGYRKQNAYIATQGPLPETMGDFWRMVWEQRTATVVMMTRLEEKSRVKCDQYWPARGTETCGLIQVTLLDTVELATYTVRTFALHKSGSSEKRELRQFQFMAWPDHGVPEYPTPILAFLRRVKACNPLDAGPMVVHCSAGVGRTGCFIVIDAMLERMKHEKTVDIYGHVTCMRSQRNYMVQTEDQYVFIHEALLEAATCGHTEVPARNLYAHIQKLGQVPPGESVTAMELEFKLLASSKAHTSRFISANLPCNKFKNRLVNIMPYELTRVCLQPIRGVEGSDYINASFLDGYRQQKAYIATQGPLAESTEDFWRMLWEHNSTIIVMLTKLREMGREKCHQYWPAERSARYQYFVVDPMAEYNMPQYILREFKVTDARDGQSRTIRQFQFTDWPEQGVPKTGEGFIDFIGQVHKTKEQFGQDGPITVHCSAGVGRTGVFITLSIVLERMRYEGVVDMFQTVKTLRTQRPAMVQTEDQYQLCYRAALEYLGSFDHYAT

With `COC(=O)/C=C/Oc1ccc(OC)cc1[C@@H]1O[C@@]2(C(=O)N(Cc3ccccc3)c3ccccc32)[C@@H](c2ccc(C)cc2)[C@@H]1[N+](=O)[O-]`, the IC50 in experiment [1] was 13.2 µM. On the same count and under the same terms, then `COC(=O)C[C@H]1Oc2ccc(Cl)cc2[C@@H]2O[C@@]3(C(=O)N(Cc4ccccc4)c4ccccc43)[C@@H](c3ccc(Br)cc3)[C@]12[N+](=O)[O-]`, with 4.65 µM. Turning to `COC(=O)C[C@H]1Oc2c(OC)cccc2[C@@H]2O[C@@]3(C(=O)N(Cc4ccccc4)c4ccccc43)[C@@H](c3ccccc3OC)[C@]12[N+](=O)[O-]`, the IC50 in experiment [1] was found to be 5.83 µM. The same measure, in the same setting: for `O=C1C[C@H]2Oc3ccc(Cl)cc3[C@@H]3O[C@@]4(C(=O)N(Cc5ccccc5)c5ccccc54)[C@@H](c4ccc(Br)cc4)[C@]23N1` the value was 6.04 µM; for `COc1cccc2c1O[C@@H]1CC(=O)N[C@]13[C@H]2O[C@@]1(C(=O)N(Cc2ccccc2)c2ccccc21)[C@H]3c1ccc(Br)cc1`, 6.19 µM; for `COc1ccc2c(c1)[C@@H]1O[C@@]3(C(=O)N(Cc4ccccc4)c4ccccc43)[C@@H](c3ccc(Br)cc3)[C@@]13NC(=O)C[C@H]3O2`, 6.48 µM. Still for that read-out and setting: then `COC(=O)/C=C/Oc1c(OC)cccc1[C@@H]1O[C@@]2(C(=O)N(Cc3ccccc3)c3ccccc32)[C@@H](c2ccc(C)cc2)[C@@H]1[N+](=O)[O-]`, with 6.8 µM. Still for that read-out and setting: for `COC(=O)/C=C/Oc1ccc(OC)cc1[C@@H]1O[C@@]2(C(=O)N(Cc3ccccc3)c3ccccc32)[C@@H](c2ccc(Br)cc2)[C@@H]1[N+](=O)[O-]` the value was 5.34 µM. With `Cc1ccc2c(c1)[C@@H]1O[C@@]3(C(=O)N(Cc4ccccc4)c4ccccc43)[C@@H](c3ccccc3)[C@@]13NC(=O)C[C@H]3O2`, the IC50 in experiment [1] came out at 10.3 µM. On to `Cc1ccc([C@H]2[C@]34NC(=O)C[C@H]3Oc3ccc(Cl)cc3[C@@H]4O[C@@]23C(=O)N(Cc2ccccc2)c2ccccc23)cc1`, for which the concentration for half-maximal inhibition (IC50) in experiment [1] turned out to be 5.61 µM. As for `COC(=O)C[C@H]1Oc2c(OC)cccc2[C@@H]2O[C@@]3(C(=O)N(Cc4ccccc4)c4ccccc43)[C@@H](c3ccc(C)cc3)[C@]12[N+](=O)[O-]`, the half-maximal inhibitory concentration (IC50) in experiment [1] amounted to 8.2 µM. With `COC(=O)/C=C/Oc1c(OC)cccc1[C@@H]1O[C@@]2(C(=O)N(Cc3ccccc3)c3ccccc32)[C@@H](c2ccc(Br)cc2)[C@@H]1[N+](=O)[O-]`, the IC50 in experiment [1] turned out to be 3.89 µM; in experiment [4] it was 5.29 µM. Moreover, the inhibition came to 38.3% in experiment [2], 98.8% in experiment [3] and 18.7% in experiment [5]. Consider `COC(=O)C[C@H]1Oc2c(OC)cccc2[C@@H]2O[C@@]3(C(=O)N(Cc4ccccc4)c4ccccc43)[C@@H](c3ccc(Br)cc3)[C@]12[N+](=O)[O-]`, for which the IC50 in experiment [1] was determined as 5.43 µM. On the same count and under the same terms, for `COc1ccccc1[C@H]1[C@]23NC(=O)C[C@H]2Oc2c(OC)cccc2[C@@H]3O[C@@]12C(=O)N(Cc1ccccc1)c1ccccc12` the value was 10 µM; for `COC(=O)C[C@H]1Oc2ccc(OC)cc2[C@@H]2O[C@@]3(C(=O)N(Cc4ccccc4)c4ccccc43)[C@@H](c3ccc(Br)cc3)[C@]12[N+](=O)[O-]`, 6.67 µM. For `COC(=O)C[C@H]1Oc2ccc(OC)cc2[C@@H]2O[C@@]3(C(=O)N(Cc4ccccc4)c4ccccc43)[C@@H](c3ccc(C)cc3)[C@]12[N+](=O)[O-]`, in experiment [1], the IC50 was found to be 4.53 µM. The inhibition in experiment [2] is 10.3%; in experiment [3], 31.1%; in experiment [5], 15.5%.

Take `COc1cccc2c1O[C@@H]1CC(=O)N[C@]13[C@H]2O[C@@]1(C(=O)N(Cc2ccccc2)c2ccccc21)[C@H]3c1ccc(C)cc1`: the IC50 in experiment [1] came out at 7.07 µM. Same read-out and setting: then `COc1ccc2c(c1)[C@@H]1O[C@@]3(C(=O)N(Cc4ccccc4)c4ccccc43)[C@@H](c3ccc(C)cc3)[C@@]13NC(=O)C[C@H]3O2`, with 7.98 µM.

Turning to `Cc1ccc([C@H]2[C@]34NC(=O)C[C@H]3Oc3ccc(C)cc3[C@@H]4O[C@@]23C(=O)N(Cc2ccccc2)c2ccccc23)cc1`, the IC50 in experiment [6] is 35.8 µM; in experiment [1] it was 4.72 µM; in experiment [4] it was 10.6 µM. Further, the inhibition in experiment [2] came to 19.4%; in experiment [3] it was 96.1%; in experiment [5], 6.72%.

One may read the IC50 as the concentration that gives 50% inhibition. For orientation: inhibition means how much of the control response was suppressed. A higher inhibition goes with a response far below the control.
